In BindingDB's records for doi:10.1021/jm800662z (Johnson & Johnson Pharmaceutical, 2008) one finds IC50 data, which are given here for one molecule.

The assay addresses T1, Tyrosine-protein kinase JAK3 (Homo sapiens, UniProt P52333).
T1 sequence (P52333 whole entry): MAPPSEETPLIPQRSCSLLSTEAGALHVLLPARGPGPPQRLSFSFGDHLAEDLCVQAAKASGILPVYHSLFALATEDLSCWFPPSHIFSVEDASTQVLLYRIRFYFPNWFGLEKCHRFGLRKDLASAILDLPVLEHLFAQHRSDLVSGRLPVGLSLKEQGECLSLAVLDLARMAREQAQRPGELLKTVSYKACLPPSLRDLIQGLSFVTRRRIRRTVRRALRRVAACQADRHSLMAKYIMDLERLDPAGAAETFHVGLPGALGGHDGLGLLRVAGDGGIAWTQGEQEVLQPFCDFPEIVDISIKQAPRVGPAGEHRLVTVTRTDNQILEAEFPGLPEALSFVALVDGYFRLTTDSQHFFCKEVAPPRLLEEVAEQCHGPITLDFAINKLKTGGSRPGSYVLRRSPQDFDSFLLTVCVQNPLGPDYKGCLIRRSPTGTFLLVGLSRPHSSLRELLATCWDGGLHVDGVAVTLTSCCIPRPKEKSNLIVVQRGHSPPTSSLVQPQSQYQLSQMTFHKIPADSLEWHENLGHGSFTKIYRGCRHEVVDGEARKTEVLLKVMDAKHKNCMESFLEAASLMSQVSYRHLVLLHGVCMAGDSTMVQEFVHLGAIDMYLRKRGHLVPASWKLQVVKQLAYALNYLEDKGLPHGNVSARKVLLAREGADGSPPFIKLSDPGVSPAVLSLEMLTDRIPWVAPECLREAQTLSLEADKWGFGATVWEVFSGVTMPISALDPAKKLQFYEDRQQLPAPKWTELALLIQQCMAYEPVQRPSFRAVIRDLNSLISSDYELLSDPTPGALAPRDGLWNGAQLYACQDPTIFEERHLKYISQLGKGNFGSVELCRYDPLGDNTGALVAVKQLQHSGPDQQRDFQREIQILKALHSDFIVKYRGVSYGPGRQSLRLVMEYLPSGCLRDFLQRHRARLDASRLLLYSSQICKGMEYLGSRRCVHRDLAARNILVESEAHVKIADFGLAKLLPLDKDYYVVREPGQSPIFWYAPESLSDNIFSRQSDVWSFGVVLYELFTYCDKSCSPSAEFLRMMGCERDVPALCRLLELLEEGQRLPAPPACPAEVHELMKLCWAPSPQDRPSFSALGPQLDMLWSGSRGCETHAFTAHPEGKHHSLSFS
The assay is described as follows: JAK3 Inhibition Assay. The settings on record: pH 7.5; 22 °C. As to the method:
An ELISA assay was used to determine the ability of inhibitor to inhibit JAK3 […] activity. The compounds were incubated with enzyme, 10 uM ATP, and biotinylated peptide substrate. Phosphorylated tyrosine was then detected by sequential incubation with anti-phosphotyrosine antibody.

SMILES strings stand for the structures.

In general, IC50 refers to the point on the concentration scale where inhibition reaches its midpoint. As to `O=C1c2ccccc2-c2n[nH]c3cccc1c23`, it took 957 nM to reach half-maximal inhibition (IC50).
